pIC50: −log10 of the molar value. Active and inactive are the calls of the source. No cut-off for these calls is given here.
What was measured:
SK-OV-3 = assay: Cytotoxicity against human SKOV3 cells after 48 hrs by SRB assay; type: functional, cell-based; conditions: SK-OV-3, 48 h
[1] = target: T1, DNA topoisomerase 1 (Homo sapiens) (UniProt P11387); assay: Inhibition of human topoisomerase 1
T1 sequence (whole entry): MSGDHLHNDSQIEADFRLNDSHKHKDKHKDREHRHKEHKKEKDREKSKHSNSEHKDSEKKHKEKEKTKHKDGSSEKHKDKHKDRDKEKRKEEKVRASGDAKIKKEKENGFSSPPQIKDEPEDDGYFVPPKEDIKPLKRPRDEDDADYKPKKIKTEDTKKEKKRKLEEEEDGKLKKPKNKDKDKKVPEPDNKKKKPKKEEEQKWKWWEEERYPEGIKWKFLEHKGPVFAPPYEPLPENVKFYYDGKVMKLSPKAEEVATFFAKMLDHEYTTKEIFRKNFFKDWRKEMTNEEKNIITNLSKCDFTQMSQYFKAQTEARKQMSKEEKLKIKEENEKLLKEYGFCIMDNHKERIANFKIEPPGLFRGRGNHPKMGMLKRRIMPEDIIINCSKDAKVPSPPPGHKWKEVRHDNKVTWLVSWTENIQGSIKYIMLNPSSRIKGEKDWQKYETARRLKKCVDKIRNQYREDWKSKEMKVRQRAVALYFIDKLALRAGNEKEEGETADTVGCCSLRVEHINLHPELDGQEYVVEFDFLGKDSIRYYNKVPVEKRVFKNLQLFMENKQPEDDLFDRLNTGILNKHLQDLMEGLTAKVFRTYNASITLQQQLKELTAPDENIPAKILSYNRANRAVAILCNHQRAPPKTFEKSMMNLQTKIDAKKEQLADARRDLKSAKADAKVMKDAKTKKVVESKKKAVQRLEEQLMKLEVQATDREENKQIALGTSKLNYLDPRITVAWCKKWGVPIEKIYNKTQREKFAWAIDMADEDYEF

With `CCCCCC1=C/C(=C/c2[nH]c(-c3ccc(Cc4ccc(O)cc4)[nH]3)cc2OC)N=C1C` the pIC50 (SK-OV-3) was 5.89 and the inhibition [1] was “Active”.

With `CCCCCC1=C/C(=C/c2[nH]c(-c3ccc[nH]3)cc2OC)N=C1C` [PRODIGIOSIN] the pIC50 (SK-OV-3) was 5.89 and the inhibition [1] was “Active”.
